According to patent US20220403326A1, “MEDIA FORMULATIONS AND METHODS FOR PRODUCING PROGENITOR T CELLS” (priority 2019, published 2022):

How the values were obtained:
Assay type in all cases: cell-based, human
CD34+ HSPCs [1] = assay: Definitive screening design cytokine screen for proT cell differentiation and expansion
Description: For experiments 7 days or longer, HSPCs were seeded at 63-125 cells/mm^2 (equivalent to 2000-4000 cells/well of a 96-well plate) on DL4+VCAM-1-coated surfaces. Experiments shorter than 7 days (CFSE and qPCR) were seeded at 470-780 cells/mm^2 (equivalent to 15,000-25,000 cells/well of a 96-well plate) to provide enough cells for analysis. Cells were cultured in 100 μl/well (32 μl/well for 384-well plate) of Iscove's Modified Eagle Medium (IMDM) supplemented with 20% bovine serum albumin, insulin, and transferrin (BIT 9500) serum substitute (Stemcell Technologies), 1 μg/ml low-density lipoprotein (LDL; Stemcell Technologies), 60 μM ascorbic acid (Sigma), 24 μM 2-mercaptoethanol (Sigma), and 1% penicillin-streptomycin (P/S; Invitrogen). The cytokines used in control condition were SCF, FLT3L, TPO, and IL-7 (also known as the “4F cytokines”, all of which were obtained from R&D Systems), each at a concentration of 20 ng/ml or 100 ng/ml as indicated in the text. All other cytokines were purchased from R&D Systems and used in the combinations and concentrations indicated in the text. For certain experiments, the γ-secretase inhibitor (2S)-N-[(3,5-Difluorophenyl)acetyl]-L-alanyl-2-phenyl] glycine 1,1-dimethylethyl ester (DAPT) or dimethyl sulfoxide (DMSO) was added to media at the concentrations indicated in the text.
For screening experiments, a Definitive Screening Design (DSD)^7 was employed where each factor was tested at three levels (scaled to [−1,0,1]). The design included at least 2m+1 runs, where m is the number of factors, comprised of m fold-over pairs plus a center run (with all factors at level 0) and with orthogonal blocking of UCB donors.^8
Absolute cell numbers were acquired for each cell population of interest and, for initial experiments, a z-score was calculated relative to the control condition:
where SE(⋅) is the standard error. Control conditions were the cytokines used previously in the DL4+VCAM-1 assay as in Shukla et al.^6 Stepwise regression using the minimum Bayesian information criterion method was used to determine significant terms and, from this, a linear regression model of z-scores was constructed that included main and quadratic effects and two-factor interactions. This provided a better- or worse-than estimate for each factor compared to the control. The DSD layout and regression model were constructed using JMP 13 software (SAS). Follow up experiments measuring the dose response of top factors, the regression model was fit to the absolute cell count. Values were square root or log-transformed as necessary to ensure that residuals were approximately normal before fitting the regression model.
Test conditions were arranged using serial dilutions of each cytokine and laid out using an Eppendorf epMotion 5070 liquid handler in 384-well plates previously coated with DL4 and VCAM-1.
To identify factors that enhance proT cell differentiation and expansion, a two-part screen was conducted from day 0-7 and day 7-14 to separate the effects of screened molecules on HSPCs and differentiating proT cells (FIG. 1a). Screened molecules were tested at three doses each in combination using a definitive screening design (DSD) experiment and a linear regression model was fit to empirical data to estimate dose response.^7 The response to factors was measured against a control condition that contained SCF, FLT3L, TPO and IL-7 cytokines as in Shukla et al.^6 but using a lower concentration of 20 ng/ml each.
Medium gray indicates the effect of the control condition; dark gray to black indicates an effect greater than the control condition; and light gray to white indicates an effect lesser than the control condition. The size of each circle indicates the significance of the effect in the linear regression model. Combinations of factors indicate two-factor interactions (e.g., TPO*IL-1β) or quadratic effects (e.g., IL-21*IL-21) in the regression model. […] IL-3 and TNFα were selected for further investigation. […]

HSPCs [2] = assay: CFSE proliferation assay of HSPCs on DL4+VCAM-1
Description: To track the number of cell divisions, cells were stained with 2.5 μM CellTrace™ CFSE (ThermoFisher) in PBS and incubated at 37° C. for 8 minutes. CFSE was quenched by adding 5 times the volume of IMDM+BIT and incubating at 37° C. for 5 minutes. Cells were then resuspended in fresh media and seeded on DL4+VCAM-1 for culture. For analysis, cells were collected and stained for CD34, CD7, and CD5 surface markers as described above and analyzed using flow cytometry. Proliferation was modelled using FlowJo™ software and further analysis was performed with R.
To track the number of cell divisions in response to each of IL-3 and TNFα, the HSPCs were first stained with carboxyfluorescein succinimidyl ester (CFSE). IL-3 or TNFα were added on day 0 and the number of divisions of each cell was analyzed on days 2, 3, 4 and 5.

HSPCs [3] = assay: DL4 coating concentration titration, 14-day culture, with or without TNFα; settings: lowest DL4 concentration tested; 14 days; with VCAM-1
Description: Tissue culture 96-well plates were coated with DL4-Fc and VCAM-1-Fc (R&D Systems) overnight at 4° C. or for 3-4 hours at room temperature. To coat, DL4 and VCAM-1 were diluted to 15 μg/ml and 2.5 μg/ml, respectively, in 50 μl of phosphate-buffered saline (PBS), resulting in a coating concentration of approximately 24 ng/mm2 of DL4-Fc and 4 ng/mm2 of VCAM-1-Fc. For titration experiments, the concentration of DL4 or VCAM-1 was adjusted accordingly while maintaining a 50 μl volume of PBS. Experiments using 384-well plates scaled were coated similarly but with 16 μl of PBS. Wells were washed once with PBS prior to seeding cells to remove unbound DL4-Fc protein that inhibits Notch signaling.^6
In parallel with the Notch pathway inhibition experiment described above, HSPCs were also seeded on DL4+VCAM-1 for 14 days with decreasing concentrations of DL4 (FIG. 4d). […] Representative flow cytometry plots showing differential proT cell induction with decreasing DL4 concentration in the presence or absence of TNFα are shown in FIG. 4f.

CD34+ HSPCs [4] = assay: Surface expression of CD117, CD123 and CD127 after 24 hours of TNFα stimulation; settings: TNFα stimulation for 24 hours
Description: Prior to analysis via flow cytometry, adherent cells were collected from DL4+VCAM-1 surfaces using vigorous pipetting or TrypLE Express Enzyme (ThermoFisher) for 5 minutes at 37° C. Afterwards, cells were rinsed twice with Hanks Balanced Salt Solution (ThermoFisher) plus 2% FBS (HF). Surface antibodies were stained at 1:100-1:300 in HF at room temperature for 15 minutes. Cells were then rinsed once with HF and resuspended in HF with 1:1000 7-AAD to exclude dead cells. Data was acquired with a BD Fortessa™ and compensation and gating was performed with FlowJo™ software and further analysis with the R programming language (version 3.3.2).
Next, the expression of CD117 (c-kit; SCF receptor), CD123 (IL-3 receptor) and CD127 (IL-7 receptor) on CD34+ HSPCs was evaluated in the presence or absence of TNFα stimulation for 24 hours.

## TNFα
CD34+ HSPCs [1]; day 0-7 and day 7-14, control SCF, FLT3L, TPO, IL-7 at 20 ng/ml each, linear regression model
  effect on total live cells, CD7+ lymphocytes and CD7+CD5+ cells relative to the control condition: string positive effects
CD34+ HSPCs [1]; range of concentrations, n=2 UCB donors
  dose response of live cells, CD7+ lymphocytes and CD7+CD5+ proT cells: curved response in at least one population
HSPCs [2]; day 5
  proportion of proT2 (CD34+CD7+CD5+) cells: higher proportion of proT2 cells
HSPCs [2]; days 2-5
  upregulation of CD7: slow to upregulate CD7
HSPCs [3]
  DL4 coating concentration down to which CD7+CD5+ proT cell development is maintained: ≤ 2 ng/mm^2
CD34+ HSPCs [4]
  frequency of CD123+ cells: significant increase
  median fluorescent intensity (MFI) of CD123: increase in the median fluorescent intensity
